Earlier results in US8673347B2 (Creabilis Therapeutics S.p.A., priority 2005, dated 2014).

Columns and labels:
TrkA = TrkA (Homo sapiens, UniProt P04629); conditions: cited from earlier work
MLK3 = MLK3 (Homo sapiens, UniProt Q16584); conditions: cited from earlier work
Sequence of MLK3 (Q16584 whole entry, species assumed): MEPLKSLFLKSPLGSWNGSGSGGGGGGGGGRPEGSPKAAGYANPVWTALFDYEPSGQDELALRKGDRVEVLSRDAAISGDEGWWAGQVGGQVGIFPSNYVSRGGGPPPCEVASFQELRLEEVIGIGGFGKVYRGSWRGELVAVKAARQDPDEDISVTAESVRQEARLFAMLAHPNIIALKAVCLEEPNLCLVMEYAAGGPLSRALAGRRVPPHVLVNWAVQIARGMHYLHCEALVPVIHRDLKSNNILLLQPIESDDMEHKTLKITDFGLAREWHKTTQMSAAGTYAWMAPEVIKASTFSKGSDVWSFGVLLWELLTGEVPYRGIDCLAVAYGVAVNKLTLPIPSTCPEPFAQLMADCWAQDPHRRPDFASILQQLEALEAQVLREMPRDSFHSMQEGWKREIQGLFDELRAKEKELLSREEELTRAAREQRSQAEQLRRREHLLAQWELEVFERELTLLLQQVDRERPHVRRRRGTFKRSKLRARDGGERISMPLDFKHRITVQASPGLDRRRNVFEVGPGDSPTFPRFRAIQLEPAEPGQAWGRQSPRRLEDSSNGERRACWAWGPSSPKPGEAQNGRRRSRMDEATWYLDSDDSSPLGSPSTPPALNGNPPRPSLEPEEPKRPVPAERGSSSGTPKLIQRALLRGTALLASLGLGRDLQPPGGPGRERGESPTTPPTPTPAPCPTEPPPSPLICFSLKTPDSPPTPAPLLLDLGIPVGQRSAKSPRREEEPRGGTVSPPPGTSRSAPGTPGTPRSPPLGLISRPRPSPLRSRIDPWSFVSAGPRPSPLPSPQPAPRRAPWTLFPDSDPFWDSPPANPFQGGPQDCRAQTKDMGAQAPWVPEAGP

Sequence of TrkA (P04629 33-796, species assumed): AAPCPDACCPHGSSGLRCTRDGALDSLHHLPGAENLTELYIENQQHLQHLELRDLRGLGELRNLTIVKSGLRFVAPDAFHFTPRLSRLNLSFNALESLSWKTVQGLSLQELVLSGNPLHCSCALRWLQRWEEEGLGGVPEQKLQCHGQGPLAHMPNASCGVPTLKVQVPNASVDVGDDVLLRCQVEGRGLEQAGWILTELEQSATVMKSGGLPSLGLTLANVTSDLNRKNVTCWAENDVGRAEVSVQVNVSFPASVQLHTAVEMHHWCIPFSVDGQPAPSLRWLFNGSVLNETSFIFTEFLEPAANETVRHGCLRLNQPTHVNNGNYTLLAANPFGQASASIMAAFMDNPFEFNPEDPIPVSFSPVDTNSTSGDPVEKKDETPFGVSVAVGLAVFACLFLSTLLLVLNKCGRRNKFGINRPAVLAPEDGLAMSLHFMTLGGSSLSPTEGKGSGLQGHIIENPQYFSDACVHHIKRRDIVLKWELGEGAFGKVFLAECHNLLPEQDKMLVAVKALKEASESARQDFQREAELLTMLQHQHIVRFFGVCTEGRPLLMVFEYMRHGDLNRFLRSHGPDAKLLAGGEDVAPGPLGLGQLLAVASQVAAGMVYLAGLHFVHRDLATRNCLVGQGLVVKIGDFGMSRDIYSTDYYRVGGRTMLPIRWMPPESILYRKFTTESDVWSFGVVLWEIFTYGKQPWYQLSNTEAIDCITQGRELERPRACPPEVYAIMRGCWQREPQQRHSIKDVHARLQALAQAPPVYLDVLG

## CCSCc1ccc2c(c1)c1c3c(c4c5cc(CSCC)ccc5n5c4c1n2[C@H]1C[C@](O)(C(=O)OC)[C@]5(C)O1)CNC3=O [CEP1347]
TrkA
  TrkA inhibition: does not inhibit TrkA
MLK3
  inhibition of MAPKKKs, including MLK3: directly inhibit
